Source: ChEMBL document CHEMBL1135176, “Combinatorial synthesis and biological evaluation of isoxazole-based libraries as antithrombotic agents” (2002)

Assays:
[1] = test system: Mus musculus; assay: In vivo antithrombotic activity in Swiss mice was determined when the compound was administered at 30 umol/kg orally 1 hour prior to challenge; type: functional
[2] = test system: Mus musculus; assay: In vivo increase in the bleeding time was determined when administered at 30 umol/kg orally 1 hour prior to challenge; type: functional

Compound `Cc1ccc(CN(Cc2cc(-c3ccccc3)on2)C(Cc2c[nH]cn2)C(N)=O)cc1` (configuration not stated) has a Protection [1] of 40%.

With `Cc1ccc(-c2cc(CN(Cc3cccc(Br)c3)C(Cc3c[nH]cn3)C(N)=O)no2)cc1` (configuration not stated) the Protection [1] was 10%.

For `NC(=O)C(Cc1ccc(O)cc1)N(Cc1ccc(Br)cc1)Cc1cc(-c2ccccc2)on1` (configuration not stated), the Protection [1] was 20%.

`NC(=O)C(Cc1ccccc1)N(Cc1ccc(Br)cc1)Cc1cc(-c2ccccc2)on1` (configuration not stated) gave a Protection [1] of 20%.

For `NC(=O)C(Cc1c[nH]cn1)N(Cc1ccccc1)Cc1cc(-c2ccccc2)on1` (configuration not stated), the Protection [1] was 50% and the Increase [2] was 81%.

Work on `Cc1ccc(-c2cc(CN(Cc3ccc(C#N)cc3)C(Cc3ccc(O)cc3)C(N)=O)no2)cc1` (configuration not stated) yielded a Protection [1] of 20%.

`NCCCCC(C(N)=O)N(Cc1ccc([N+](=O)[O-])cc1)Cc1cc(-c2ccccc2)on1` (configuration not stated) showed a Protection [1] of 30%.

Compound `N=C(N)NCCCC(C(N)=O)N(Cc1ccccc1)Cc1cc(-c2ccccc2Cl)on1` (configuration not stated) has a Protection [1] of 40%.

For `NC(=O)C(Cc1c[nH]cn1)N(Cc1ccc([N+](=O)[O-])cc1)Cc1cc(-c2ccccc2)on1` (configuration not stated), the Protection [1] was 60% and the Increase [2] was 30%.

With `NC(=O)C(Cc1c[nH]cn1)N(Cc1cccc(Br)c1)Cc1cc(-c2ccccc2)on1` (configuration not stated) the Protection [1] was 40%.

With `Cc1ccc(-c2cc(CN(Cc3ccc(C#N)cc3)C(CO)C(N)=O)no2)cc1` (configuration not stated) the Protection [1] was 60% and the Increase [2] was 41%.

`Cc1ccc(-c2cc(CN(CC(N)=O)Cc3ccccc3)no2)cc1` showed a Protection [1] of 20%.

In the case of `Cc1ccc(-c2cc(CN(Cc3ccccc3)C(CCCN=C(N)N)C(N)=O)no2)cc1` (configuration not stated), the Protection [1] is reported as 10%.

`NC(=O)C(Cc1ccccc1)N(Cc1ccccc1)Cc1cc(-c2ccccc2Cl)on1` (configuration not stated) gave a Protection [1] of 30%.

With `NC(=O)C(CO)N(Cc1ccccc1)Cc1cc(-c2ccccc2)on1` (configuration not stated) the Protection [1] was 60% and the Increase [2] was 58%.

`NC(=O)C(Cc1ccc(O)cc1)N(Cc1ccc(Br)cc1)Cc1cc(-c2ccccc2Cl)on1` (configuration not stated) was tested, and the Protection [1] was 60%.

For `Cc1ccc(-c2cc(CN(Cc3cccc(C)c3)C(Cc3ccccc3)C(N)=O)no2)cc1` (configuration not stated), the Protection [1] was 50% and the Increase [2] was 0%.

In the case of `Cc1ccc(-c2cc(CN(Cc3ccc(C#N)cc3)C(CCCN=C(N)N)C(N)=O)no2)cc1` (configuration not stated), the Protection [1] is reported as 40%.

In the case of `NC(=O)C(Cc1ccccc1)N(Cc1ccc([N+](=O)[O-])cc1)Cc1cc(-c2ccccc2Cl)on1` (configuration not stated), the Protection [1] is reported as 20%.

`Cc1ccc(CN(Cc2cc(-c3ccccc3)on2)C(CCCCN)C(N)=O)cc1` (configuration not stated) was tested, and the Protection [1] was 20%.

In the case of `CC(C)=CCC(C(N)=O)N(Cc1ccc(C#N)cc1)Cc1cc(-c2ccccc2)on1` (configuration not stated), the Protection [1] is reported as 20%.

Compound `Cc1ccc(-c2cc(CN(Cc3ccccc3)C(CCCCN)C(N)=O)no2)cc1` (configuration not stated) has a Protection [1] of 40%.

Work on `N#Cc1ccc(CN(Cc2cc(-c3ccccc3)on2)C(CCCNC(=N)N)C(N)=O)cc1` (configuration not stated) yielded a Protection [1] of 50% and an Increase [2] of 31%.

In the case of `NC(=O)C(CO)N(Cc1ccc(Br)cc1)Cc1cc(-c2ccccc2Cl)on1` (configuration not stated), the Protection [1] is reported as 70% and the Increase [2] is reported as 50%.

Compound `Cc1ccc(-c2cc(CN(Cc3cccc([N+](=O)[O-])c3)C(CCCCN)C(N)=O)no2)cc1` (configuration not stated) has a Protection [1] of 20%.

With `CC(C)=CCC(C(N)=O)N(Cc1cccc(C)c1)Cc1cc(-c2ccc(C)cc2)on1` (configuration not stated) the Protection [1] was 60%.

For `Cc1ccc(-c2cc(CN(Cc3ccccc3)C(CO)C(N)=O)no2)cc1` (configuration not stated), the Protection [1] was 60% and the Increase [2] was 79%.

`N#Cc1ccc(CN(Cc2cc(-c3ccccc3Cl)on2)C(CO)C(N)=O)cc1` (configuration not stated) was tested, and the Protection [1] was 10%.

`N#Cc1ccc(CN(Cc2cc(-c3ccccc3)on2)C(CO)C(N)=O)cc1` (configuration not stated) gave a Protection [1] of 30%.

For `N#Cc1ccc(CN(Cc2cc(-c3ccccc3)on2)C(CCC(N)=O)C(N)=O)cc1` (configuration not stated), the Protection [1] was 70% and the Increase [2] was 62%.

Work on `Cc1ccc(-c2cc(CN(Cc3ccccc3)C(Cc3ccc(O)cc3)C(N)=O)no2)cc1` (configuration not stated) yielded a Protection [1] of 60% and an Increase [2] of 20%.

Work on `Cc1ccc(-c2cc(CN(Cc3ccc(Br)cc3)C(CCCN=C(N)N)C(N)=O)no2)cc1` (configuration not stated) yielded a Protection [1] of 40%.

Compound `NC(=O)CCC(C(N)=O)N(Cc1ccc(Br)cc1)Cc1cc(-c2ccccc2Cl)on1` (configuration not stated) has a Protection [1] of 20%.

In the case of `N#Cc1ccc(CN(Cc2cc(-c3ccccc3Cl)on2)C(Cc2ccc(O)cc2)C(N)=O)cc1` (configuration not stated), the Protection [1] is reported as 40%.

In the case of `N#Cc1ccc(CN(Cc2cc(-c3ccccc3Cl)on2)C(CCCNC(=N)N)C(N)=O)cc1` (configuration not stated), the Protection [1] is reported as 90% and the Increase [2] is reported as 87.5%.

`CC(C)=CCC(C(N)=O)N(Cc1ccccc1)Cc1cc(-c2ccccc2)on1` (configuration not stated) was tested, and the Protection [1] was 30%.

`Cc1ccc(-c2cc(CN(Cc3cccc(Br)c3)C(CCCCN)C(N)=O)no2)cc1` (configuration not stated) gave a Protection [1] of 40%.

`N=C(N)NCCCC(C(N)=O)N(Cc1ccc(Br)cc1)Cc1cc(-c2ccccc2)on1` (configuration not stated) gave a Protection [1] of 80% and an Increase [2] of 25%.

With `NC(=O)C(Cc1ccccc1)N(Cc1ccccc1)Cc1cc(-c2ccccc2)on1` (configuration not stated) the Protection [1] was 30%.

For `N#Cc1ccc(CN(Cc2cc(-c3ccccc3)on2)C(Cc2c[nH]cn2)C(N)=O)cc1` (configuration not stated), the Protection [1] was 50% and the Increase [2] was 80%.

`NC(=O)C(CO)N(Cc1ccc(Br)cc1)Cc1cc(-c2ccccc2)on1` (configuration not stated) was tested, and the Protection [1] was 30%.

In the case of `Cc1ccc(-c2cc(CN(Cc3ccc(C#N)cc3)C(CCCCN)C(N)=O)no2)cc1` (configuration not stated), the Protection [1] is reported as 40%.

`CC(C)=CCC(C(N)=O)N(Cc1ccc(C)cc1)Cc1cc(-c2ccccc2)on1` (configuration not stated) showed a Protection [1] of 20%.

`Cc1ccc(-c2cc(CN(Cc3cccc([N+](=O)[O-])c3)C(Cc3c[nH]cn3)C(N)=O)no2)cc1` (configuration not stated) gave a Protection [1] of 60% and an Increase [2] of 40%.

`N#Cc1ccc(CN(Cc2cc(-c3ccccc3Cl)on2)C(Cc2ccccc2)C(N)=O)cc1` (configuration not stated) gave a Protection [1] of 50% and an Increase [2] of 0%.

`CC(=O)Oc1ccccc1C(=O)O` [ASPIRIN] was tested, and the Protection [1] was 40% and the Increase [2] was 110%.
